According to patent US10906915B2, “Substituted pyrazoloazepin-4-ones and their use as phosphodiesterase inhibitors” (LEO Pharma A/S, priority 2016, dated 2021):
pIC50: −log10 of the molar value.

What follows are compounds tested against human PDE4D catalytic domain (UniProt no. Q08499) (Homo sapiens (Human), UniProt Q08499) (assay: PDE4 assay (TR-FRET, FAM-cAMP cleavage)). Details: human PDE4D catalytic domain; molar concentration giving 50% inhibition of substrate cleavage; read-out: PDE4 IC50 range.
Sequence of human PDE4D catalytic domain (Q08499 380-740 limits assumed): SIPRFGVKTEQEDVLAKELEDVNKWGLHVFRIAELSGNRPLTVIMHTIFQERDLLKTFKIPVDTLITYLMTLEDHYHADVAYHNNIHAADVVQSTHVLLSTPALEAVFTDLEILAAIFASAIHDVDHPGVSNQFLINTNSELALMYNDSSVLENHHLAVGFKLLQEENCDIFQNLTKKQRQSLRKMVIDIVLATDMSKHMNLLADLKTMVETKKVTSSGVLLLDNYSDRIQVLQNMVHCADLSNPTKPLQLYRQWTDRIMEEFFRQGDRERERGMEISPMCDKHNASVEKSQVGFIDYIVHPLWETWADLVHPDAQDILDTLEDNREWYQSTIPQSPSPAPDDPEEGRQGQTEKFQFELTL
Type: biochemical
In short: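 Read-out is time-resolved FRET from Tb donor to FAM-AMP captured on trivalent-metal nanoparticles added to stop the reaction. Substrate was a mix of plain and FAM-labelled cAMP, cleaved by human PDE4D catalytic domain ([…]) with titrated compound; IC50 ranges (nM) versus controls.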

Compound	pIC50
CCNC(=O)c1cccc(C(=O)OCCCn2nc(CC)c3c2CC2(CCOCC2)CNC3=O)c1 [Example 152, 3-(3-ethyl-4-oxo-spiro[6,8-dihydro-5H-pyrazolo[4,3-c]azepine-7,4′-tetrahydropyran]-1-yl)propyl 3-(ethylcarbamoyl)benzoate]	> 7.00
CCc1nn(C[C@@H](C)COC(=O)c2ccc(F)c(C(F)(F)F)c2)c2c1C(=O)NCC1(CCOCC1)C2 [Example 224, [(2R)-3-(3-ethyl-4-oxo-spiro[6,8-dihydro-5H-pyrazolo[4,3-c]azepine-7,4′-tetrahydropyran]-1-yl)-2-methyl-propyl] 4-fluoro-3-(trifluoromethyl)benzoate]	> 7.00
CCc1nn(CCCOC(=O)c2ccc(OC)cc2Cl)c2c1C(=O)NCC1(CCOCC1)C2 [Example 89, 3-(3-ethyl-4-oxo-spiro[6,8-dihydro-5H-pyrazolo[4,3-c]azepine-7,4′-tetrahydropyran]-1-yl)propyl 2-chloro-4-methoxy-benzoate]	> 7.00
CCc1nn(CCCOC(=O)c2cc(Cl)ccc2C)c2c1C(=O)NCC1(CCOCC1)C2 [Example 75, 3-(3-ethyl-4-oxo-spiro[6,8-dihydro-5H-pyrazolo[4,3-c]azepine-7,4′-tetrahydropyran]-1-yl)propyl 5-chloro-2-methyl-benzoate]	> 7.00
CCc1nn(C[C@@H](C)COC(=O)c2ccc(C(F)(F)F)cc2F)c2c1C(=O)NCC1(CCOCC1)C2 [Example 221, [(2R)-3-(3-ethyl-4-oxo-spiro[6,8-dihydro-5H-pyrazolo[4,3-c]azepine-7,4′-tetrahydropyran]-1-yl)-2-methyl-propyl] 2-fluoro-4-(trifluoromethyl)benzoate]	> 7.00
CCc1nn(CCCOC(=O)c2c(F)cccc2Cl)c2c1C(=O)NCC1(CCOCC1)C2 [Example 80, 3-(3-ethyl-4-oxo-spiro[6,8-dihydro-5H-pyrazolo[4,3-c]azepine-7,4′-tetrahydropyran]-1-yl)propyl 2-chloro-6-fluoro-benzoate]	> 7.00
CCc1nn(C[C@@H](C)COC(=O)c2ccc(OC)cc2F)c2c1C(=O)NCC1(CCOCC1)C2 [Example 189, [(2R)-3-(3-ethyl-4-oxo-spiro[6,8-dihydro-5H-pyrazolo[4,3-c]azepine-7,4′-tetrahydropyran]-1-yl)-2-methyl-propyl] 2-fluoro-4-methoxy-benzoate]	> 7.00
CCc1nn(C[C@@H](C)COC(=O)c2ccc(F)c(F)c2)c2c1C(=O)NCC1(CCOCC1)C2 [Example 178, [(2R)-3-(3-ethyl-4-oxo-spiro[6,8-dihydro-5H-pyrazolo[4,3-c]azepine-7,4′-tetrahydropyran]-1-yl)-2-methyl-propyl] 3,4-difluorobenzoate]	> 7.00
CCc1nn(CCCOC(=O)c2ccc(OC)c(C)c2)c2c1C(=O)NCC1(CCOCC1)C2 [Example 58, 3-(3-ethyl-4-oxo-spiro[6,8-dihydro-5H-pyrazolo[4,3-c]azepine-7,4′-tetrahydropyran]-1-yl)propyl 4-methoxy-3-methyl-benzoate]	> 7.00
CCc1nn(C[C@@H](C)COC(=O)c2cc(C#N)ccc2F)c2c1C(=O)NCC1(CCOCC1)C2 [Example 183, [(2R)-3-(3-ethyl-4-oxo-spiro[6,8-dihydro-5H-pyrazolo[4,3-c]azepine-7,4′-tetrahydropyran]-1-yl)-2-methyl-propyl] 5-cyano-2-fluoro-benzoate]	> 7.00
CCc1nn(CCCOC(=O)c2cc(F)cc(C(F)(F)F)c2)c2c1C(=O)NCC1(CCOCC1)C2 [Example 108, 3-(3-ethyl-4-oxo-spiro[6,8-dihydro-5H-pyrazolo[4,3-c]azepine-7,4′-tetrahydropyran]-1-yl)propyl 3-fluoro-5-(trifluoromethyl)benzoate]	> 7.00
CCc1ccc(C(=O)OCCCn2nc(CC)c3c2CC2(CCOCC2)CNC3=O)cc1 [Example 2, 3-(3-Ethyl-4-oxo-spiro[6,8-dihydro-5H-pyrazolo[4,3-c]azepine-7,4′-tetrahydropyran]-1-yl)propyl 4-ethylbenzoate]	> 7.00
CCc1nn(CCCOC(=O)c2ccccc2C(F)(F)F)c2c1C(=O)NCC1(CCOCC1)C2 [Example 95, 3-(3-ethyl-4-oxo-spiro[6,8-dihydro-5H-pyrazolo[4,3-c]azepine-7,4′-tetrahydropyran]-1-yl)propyl 2-(trifluoromethyl)benzoate]	> 7.00
CCc1nn(C[C@@H](C)COC(=O)c2cccc(F)c2Cl)c2c1C(=O)NCC1(CCOCC1)C2 [Example 201, [(2R)-3-(3-ethyl-4-oxo-spiro[6,8-dihydro-5H-pyrazolo[4,3-c]azepine-7,4′-tetrahydropyran]-1-yl)-2-methyl-propyl] 2-chloro-3-fluoro-benzoate]	> 7.00
CCc1nn(CCCOC(=O)c2ccc(C)cc2F)c2c1C(=O)NCC1(CCOCC1)C2 [Example 33, 3-(3-ethyl-4-oxo-spiro[6,8-dihydro-5H-pyrazolo[4,3-c]azepine-7,4′-tetrahydropyran]-1-yl)propyl 2-fluoro-4-methyl-benzoate]	> 7.00
CCc1nn(C[C@@H](C)COC(=O)c2ccc(F)c(OC)c2)c2c1C(=O)NCC1(CCOCC1)C2 [Example 193, [(2R)-3-(3-ethyl-4-oxo-spiro[6,8-dihydro-5H-pyrazolo[4,3-c]azepine-7,4′-tetrahydropyran]-1-yl)-2-methyl-propyl] 4-fluoro-3-methoxy-benzoate]	> 7.00
CCc1nn(CCCOC(=O)c2ccc(F)c(C(F)(F)F)c2)c2c1C(=O)NCC1(CCOCC1)C2 [Example 111, 3-(3-ethyl-4-oxo-spiro[6,8-dihydro-5H-pyrazolo[4,3-c]azepine-7,4′-tetrahydropyran]-1-yl)propyl 4-fluoro-3-(trifluoromethyl)benzoate]	> 7.00
CCc1nn(CCCOC(=O)c2ccc(C)c(C(F)(F)F)c2)c2c1C(=O)NCC1(CCOCC1)C2 [Example 103, 3-(3-ethyl-4-oxo-spiro[6,8-dihydro-5H-pyrazolo[4,3-c]azepine-7,4′-tetrahydropyran]-1-yl)propyl 4-methyl-3-(trifluoromethyl)benzoate]	> 7.00
CCc1nn(C[C@@H](C)COC(=O)c2cccc(S(=O)(=O)C(C)C)c2)c2c1C(=O)NCC1(CCOCC1)C2 [Example 242, [(2R)-3-(3-ethyl-4-oxo-spiro[6,8-dihydro-5H-pyrazolo[4,3-c]azepine-7,4′-tetrahydropyran]-1-yl)-2-methyl-propyl] 3-isopropylsulfonylbenzoate]	> 7.00
CCc1nn(C[C@@H](C)COC(=O)c2cc(F)cc(C(F)(F)F)c2)c2c1C(=O)NCC1(CCOCC1)C2 [Example 225, [(2R)-3-(3-ethyl-4-oxo-spiro[6,8-dihydro-5H-pyrazolo[4,3-c]azepine-7,4′-tetrahydropyran]-1-yl)-2-methyl-propyl] 3-fluoro-5-(trifluoromethyl)benzoate]	> 7.00
CCc1nn(CCCOC(=O)c2ccc(F)c(OC)c2)c2c1C(=O)NCC1(CCOCC1)C2 [Example 65, 3-(3-ethyl-4-oxo-spiro[6,8-dihydro-5H-pyrazolo[4,3-c]azepine-7,4′-tetrahydropyran]-1-yl)propyl 4-fluoro-3-methoxy-benzoate]	> 7.00

Same assay, conditions: read-out: PDE4 IC50 range

Compound	pIC50
CCc1nn(CC2(COC(=O)c3cccc(F)c3)COC2)c2c1C(=O)NCC1(CCOCC1)C2 [Example 358, [3-[(3-ethyl-4-oxo-spiro[6,8-dihydro-5H-pyrazolo[4,3-c]azepine-7,4′-tetrahydropyran]-1-yl)methyl]oxetan-3-yl]methyl 3-fluorobenzoate]	> 7.00
CCc1nn(CC(C)(C)COC(=O)c2ccc(S(=O)(=O)N3CCN(C(C)=O)CC3)cc2)c2c1C(=O)NCC1(CCOCC1)C2 [Example 324, [3-(3-ethyl-4-oxo-spiro[6,8-dihydro-5H-pyrazolo[4,3-c]azepine-7,4′-tetrahydropyran]-1-yl)-2,2-dimethyl-propyl] 4-(4-acetylpiperazin-1-yl)sulfonylbenzoate]	> 7.00
CCc1nn(CC(C)(C)COC(=O)c2ccc(Cl)cc2)c2c1C(=O)NCC1(CCOCC1)C2 [Example 290, [3-(3-ethyl-4-oxo-spiro[6,8-dihydro-5H-pyrazolo[4,3-c]azepine-7,4′-tetrahydropyran]-1-yl)-2,2-dimethyl-propyl] 4-chlorobenzoate]	> 7.00
CCc1nn(CC(C)(C)COC(=O)c2cccc(C(=O)N3CCCCC3)c2)c2c1C(=O)NCC1(CCOCC1)C2 [Example 345]	> 7.00
CCc1nn(CC(C)(C)COC(=O)c2cccc(C(=O)N3CCCC3)c2)c2c1C(=O)NCC1(CCOCC1)C2 [Example 344, [3-(3-ethyl-4-oxo-Spiro[6,8-dihydro-5H-pyrazolo[4,3-c]azepine-7,4′-tetrahydropyran]-1-yl)-2,2-dimethyl-propyl] 3-(pyrrolidine-1-carbonyl)benzoate]	> 7.00
CCc1nn(CCCCOC(=O)c2ccc(C)cc2)c2c1C(=O)NCC1(CCOCC1)C2 [Example 365, 4-(3-ethyl-4-oxo-spiro[6,8-dihydro-5H-pyrazolo[4,3-c]azepine-7,4′-tetrahydropyran]-1-yl)butyl 4-methylbenzoate]	> 7.00
CCc1nn(CC(C)(C)COC(=O)c2ccc(S(C)(=O)=O)cc2)c2c1C(=O)NCC1(CCOCC1)C2 [Example 306, [3-(3-ethyl-4-oxo-spiro[6,8-dihydro-5H-pyrazolo[4,3-c]azepine-7,4′-tetrahydropyran]-1-yl)-2,2-dimethyl-propyl] 4-methylsulfonylbenzoate]	> 7.00
CCc1nn(CC(C)(C)COC(=O)c2ccc(C(=O)N3CCN(C(C)=O)CC3)cc2)c2c1C(=O)NCC1(CCOCC1)C2 [Example 338, [3-(3-ethyl-4-oxo-spiro[6,8-dihydro-5H-pyrazolo[4,3-c]azepine-7,4′-tetrahydropyran]-1-yl)-2,2-dimethyl-propyl] 4-(4-acetylpiperazine-1-carbonyl)benzoate]	> 7.00
CCc1nn(CC2(COC(=O)c3cccc(OC)c3)COC2)c2c1C(=O)NCC1(CCOCC1)C2 [Example 360, [3-[(3-ethyl-4-oxo-spiro[6,8-dihydro-5H-pyrazolo[4,3-c]azepine-7,4′-tetrahydropyran]-1-yl)methyl]oxetan-3-yl]methyl 3-methoxybenzoate]	> 7.00
